The source of these data is paper PMC6792352, “Limited Chemical Structural Diversity Found to Modulate Thyroid Hormone Receptor in the Tox21 Chemical Library” (Environmental Health Perspectives, 2019).

By CC50 is commonly meant the concentration giving 50% cytotoxicity.

This data set in a line: in vitro. To be noted: rat, gh3-tre-luc cells.

Where a name gives a salt, the structure may show the parent alone.

Consider `O=C(O)CC(O)C(=O)O` (centres unmarked) [Malic acid], for which the CC50 at 24 h (AC50 (uM) modified / 1000) was greater than 90 µM.
For `Nc1ccc([N+](=O)[O-])cc1O` [2-Amino-5-nitrophenol], it took 82.7 µM to reach half-maximal cytotoxicity (AC50 (uM) modified / 1000) (CC50 at 24 h). That is a double-digit micromolar value.
Same read-out and setting: in the case of `Clc1ccnc(Cl)n1` [2,4-Dichloropyrimidine] it was greater than 90 µM.
Compound `CNCCCC1c2ccccc2C=Cc2ccccc21` [Protriptyline hydrochloride] showed a CC50 at 24 h (AC50 (uM) modified / 1000) of 7.1 µM.
Same read-out and setting: for `Cc1ccsc1/C=C/C1=NCCCN1C` [Morantel tartrate] the value was greater than 20 µM; for `CC/C=C/CCCCCCCCC1CC(=O)OC1=O` (centres unmarked) [(Tetrapropenyl)succinic anhydride], greater than 90 µM; for `CC(=O)OCCC1CCCCC1` [2-Cyclohexylethyl acetate], greater than 90 µM.
Still for that read-out and setting: in the case of `Cc1cc(O)c(Cl)cc1C` [2-Chloro-4,5-dimethylphenol] it was greater than 90 µM.
On the same count and under the same terms, in the case of `C=CCOC(C)=O` [Allyl acetate] it was greater than 90 µM.
The compound `CC(C)(C)NCC(O)c1cc(Cl)c(N)c(Cl)c1` (centres unmarked) [Clenbuterol] showed a CC50 at 24 h (AC50 (uM) modified / 1000, Tox21_110001=Tox21_112016, viability, 1 nM T3 present, 24 h) of 31.8 µM.
As to `COc1cc2c(cc1OC)CC(=O)N(CCCN(C)C[C@H]1Cc3cc(OC)c(OC)cc31)CC2` [Ivabradine hydrochloride], where the note is “AC50 (uM) modified / 1000”, the CC50 at 24 h was greater than 50 µM.
Still for that read-out and setting: in the case of `OCC(F)(F)F` [2,2,2-Trifluoroethanol] it was greater than 100 µM; in that of `Oc1ncc(N(CCCl)CCCl)c(O)n1` [Uracil mustard], greater than 50 µM; in that of `CCOC(=O)[N-]c1cn(N2CCOCC2)n[o+]1` [Molsidomine], greater than 20 µM.
For the compound `O=C(C[S+]([O-])Cc1ccco1)NC/C=C\COc1cc(CN2CCCCC2)ccn1` (centres unmarked) [Lafutidine], the CC50 at 24 h (AC50 (uM) modified / 1000) was greater than 50 µM.
Compound `Cc1ccc(S(=O)(=O)O)cc1C` [Sodium xylenesulfonate] had a CC50 at 24 h (AC50 (uM) modified / 1000) greater than 90 µM.
Same read-out and setting: in the case of `CCCCCCCCOC(=O)c1cc(O)c(O)c(O)c1` [Octyl gallate] it was 2.6 µM.
In turn, `O=C(CCCN1CCC(O)(c2cccc(C(F)(F)F)c2)CC1)c1ccc(F)cc1` [Trifluperidol hydrochloride] returned a CC50 at 24 h (AC50 (uM) modified / 1000) of 24 µM.
As to `C/C=C/C=C/C=O` [(2E,4E)-2,4-Hexadienal], where the note is “AC50 (uM) modified / 1000”, the CC50 at 24 h was greater than 90 µM.
`O=C(c1ccc(O)cc1)c1ccc(O)c(O)c1O` [2,3,4,4'-Tetrahydroxybenzophenone] showed a CC50 at 24 h (AC50 (uM) modified / 1000) greater than 90 µM.
Take `c1ccc2c(c1)c1cccc3ccc4cccc2c4c31` [Benzo(e)pyrene]: the 50% cytotoxic concentration (CC50) at 24 h (AC50 (uM) modified / 1000) was greater than 90 µM.
On to `CCC1(CC)C(=O)NC(=O)NC1=O` [Sodium barbital], for which the CC50 at 24 h (AC50 (uM) modified / 1000) is greater than 90 µM.
`COc1cccc(N)c1` [3-Methoxyaniline]: the CC50 at 24 h (AC50 (uM) modified / 1000) was greater than 90 µM.
Same read-out and setting: for `Cc1cc(-c2ccc(N=Nc3cc(S(=O)(=O)O)c4ccccc4c3N)c(C)c2)ccc1N=Nc1cc(S(=O)(=O)O)c2ccccc2c1N` [C.I. Direct Red 2] the value was 62.5 µM; for `CCOCCOCCOC(C)=O` [2-(2-Ethoxyethoxy)ethyl acetate], greater than 90 µM.
In turn, `CC(O)(CS(=O)(=O)c1ccc(F)cc1)C(=O)Nc1ccc(C#N)c(C(F)(F)F)c1` (centres unmarked) [Bicalutamide] yielded a CC50 at 24 h (AC50 (uM) modified / 1000) greater than 50 µM.
On the same count and under the same terms, in the case of `COc1ccc(/C=C/C(=O)c2ccc(OC)cc2OC)cc1` [Metochalcone] it was 46.1 µM.
On the same count and under the same terms, in the case of `CCCSS/C(CCO)=C(/C)N(C=O)Cc1cnc(C)nc1N` [Prosultiamine] it was 22.5 µM.
The compound `O=Cc1ccc(Cl)cc1Cl` [2,4-Dichlorobenzaldehyde] yielded a CC50 at 24 h (AC50 (uM) modified / 1000, Tox21_110001=Tox21_201217, viability, 1 nM T3 present, 24 h) greater than 90 µM.
As for `CC(CN(C)C)CN1c2ccccc2CCc2ccccc21` (centres unmarked) [Trimipramine maleate], it took 4.77 µM to reach half-maximal cytotoxicity (AC50 (uM) modified / 1000) (CC50 at 24 h). This lies in the single-digit micromolar range.
Consider `CCCC(C(=O)OCCN(CC)CC)(c1ccccc1)c1ccccc1` [Proadifen hydrochloride], for which the CC50 at 24 h (AC50 (uM) modified / 1000) was 24.7 µM.
Still for that read-out and setting: for `CCCCCCCCCCCCCCC(=O)O` [Pentadecanoic acid] the value was greater than 90 µM.
The compound `CCCCCCCCCCCCSCCOCCOCCOCCOCCOCCOCCOCCOCCOCCO` [Laureth 10s] showed a CC50 at 24 h (AC50 (uM) modified / 1000) greater than 50 µM.
Same read-out and setting: for `O=C1CC[C@@H](C(=O)N[C@H]2C[C@@H]2c2ccccc2)N1` [Rolicyprine] the value was greater than 50 µM; for `CC(C)C[C@H](NC(=O)[C@@H](COC(C)(C)C)NC(=O)[C@H](Cc1ccc(O)cc1)NC(=O)[C@H](CO)NC(=O)[C@H](Cc1c[nH]c2ccccc12)NC(=O)[C@H](Cc1cnc[nH]1)NC(=O)[C@@H]1CCC(=O)N1)C(=O)N[C@@H](CCCNC(=N)N)C(=O)N1CCC[C@H]1C(=O)NNC(N)=O` [Goserelin acetate], greater than 50 µM.
On to `Nc1ccccc1-c1ccccc1` [2-Biphenylamine], for which the CC50 at 24 h (AC50 (uM) modified / 1000) was greater than 90 µM.
`CCOC(=O)Cc1ccccc1` [Ethyl phenylacetate] registered a CC50 at 24 h (AC50 (uM) modified / 1000, Tox21_110001=Tox21_300810, viability, 1 nM T3 present, 24 h) greater than 90 µM.
Under “AC50 (uM) modified / 1000”, `O=Nc1ccc(NO)cc1` [p-Benzoquinone dioxime] registered a CC50 at 24 h greater than 100 µM.
In turn, `Cc1ncsc1CCCl` [Clomethiazole] yielded a CC50 at 24 h (AC50 (uM) modified / 1000, Tox21_110001=Tox21_110931, viability, 1 nM T3 present, 24 h) greater than 50 µM.
Compound `CCCCCCCCCCCC(=O)OCC` [Ethyl dodecanoate] had a CC50 at 24 h (AC50 (uM) modified / 1000) greater than 90 µM.
As for `C=C(C)C(=O)OCC1CO1` (centres unmarked) [Glycidyl methacrylate], for the setting “AC50 (uM) modified / 1000”, the CC50 at 24 h was greater than 90 µM.
The same measure, in the same setting: in the case of `COc1cc([S+](C)[O-])ccc1-c1nc2ncccc2[nH]1` (centres unmarked) [Sulmazole] it was greater than 50 µM.
On the same count and under the same terms, for `C=C(C)C(=O)OCCCCCCCCCCCC` [Dodecyl 2-methylacrylate] the value was greater than 90 µM; for `CCNC(=O)NCc1cccc(Cl)c1` [Lozilurea], greater than 50 µM.
Still for that read-out and setting: for `c1cc(CN2CCCCC2)cc(OCCCNc2nc3ccccc3s2)c1` [Zolantidine dimaleate] the value was 8.26 µM.
As to `COP(=O)(OC)OC(Br)C(Cl)(Cl)Br` (centres unmarked) [Naled], the CC50 at 24 h by setting is: (AC50 (uM) modified / 1000, Tox21_110001=Tox21_201641, viability, 1 nM T3 present, 24 h) 48.7 µM; (AC50 (uM) modified / 1000, Tox21_110001=Tox21_300845, viability, 1 nM T3 present, 24 h) 49.1 µM.
Turning to `Cn1cc(NC(=O)c2cc(NC(=O)c3cc(NC=O)cn3C)cn2C)cc1C(=O)NCCC(=N)N` [Stallimycin], the 50% cytotoxic concentration (CC50) at 24 h (AC50 (uM) modified / 1000) was greater than 50 µM.
The same measure, in the same setting: in the case of `CC1CCc2nccnc21` (centres unmarked) [5H-5-Methyl-6,7-dihydrocyclopenta[b]pyrazine] it was greater than 90 µM.
As to `c1ccc2c(c1)ccc1ccccc12` [Phenanthrene], the CC50 at 24 h (AC50 (uM) modified / 1000) was greater than 90 µM.
With `C#CC1(O)CCCCC1` [1-Ethynylcyclohexanol], for the setting “AC50 (uM) modified / 1000, Tox21_110001=Tox21_302106, viability, 1 nM T3 present, 24 h”, the CC50 at 24 h is greater than 90 µM.
`CC1CC(O)CC(C)(C)C1` (centres unmarked) [3,3,5-Trimethylcyclohexanol] had a CC50 at 24 h (AC50 (uM) modified / 1000) greater than 90 µM.
Consider `CCCCCCCCCCCC[N+](C)(C)CC(=O)O` [N-(Alkyl C10-C16)-N,N-dimethylglycine betaine], for which, for the setting “AC50 (uM) modified / 1000”, half-maximal cytotoxicity (CC50 at 24 h) was put at 79.2 µM.
As to `CCCCCC=O` [Hexanal], the CC50 at 24 h (AC50 (uM) modified / 1000) was greater than 100 µM.
Compound `CCOc1ccc2ccccc2c1C(=O)N[C@@H]1C(=O)N2[C@@H]1SC(C)(C)[C@@H]2C(=O)O` [Nafcillin sodium monohydrate] displayed a CC50 at 24 h (AC50 (uM) modified / 1000) greater than 20 µM.
Same read-out and setting: in the case of `O=P(O)(O)C(O)(Cc1cccnc1)P(=O)(O)O` [Risedronate sodium] it was greater than 50 µM.
Under “AC50 (uM) modified / 1000”, `COC(=O)C(C)N(C(=O)Cc1ccccc1)c1c(C)cccc1C` (centres unmarked) [Benalaxyl] registered a CC50 at 24 h greater than 90 µM.
`OCc1cccc(Oc2ccccc2)c1` [3-Phenoxybenzenemethanol] returned a CC50 at 24 h (AC50 (uM) modified / 1000) greater than 90 µM.
The same measure, in the same setting: for `Cc1ccc(C)cc1` [p-Xylene] the value was greater than 90 µM.
The same measure, in the same setting: in the case of `CCCCCCC(C)OC(=O)CCCCC(=O)OC(C)CCCCCC` (centres unmarked) [Diisooctyl adipate] it was greater than 90 µM; in that of `C=C(C)CS(=O)(=O)O` [Sodium 2-methylprop-2-ene-1-sulfonate], greater than 90 µM; in that of `O=C(Oc1ccccc1)c1ccccc1` [Phenyl benzoate], greater than 90 µM.
